For one experiment, the system named is Myzus persicae. Briefly: Myzus persicae test (Example A): spray treatment of infested cabbage leaves. Format: in vivo. As to conditions: for Destruction in % after 1 d: 0.16 g/ha. From the text:
(§1) Solvent: 78 parts by weight of acetone

The next experiment relates to Spodoptera frugiperda. Briefly: Spodoptera frugiperda larvae test (Example C): sprayed cabbage leaves populated with army worm larvae. Format: in vivo. The conditions noted are these: for Destruction in % after 6 d: Table C second series.
Description: as §1

For another experiment, the system named is Phaedon cochleariae. Briefly: Phaedon cochleariae larvae test (Example B): sprayed cabbage leaves populated with mustard beetle larvae. As to conditions: for pest or weed control at 4 g/ha: read-out: Destruction in % after 6 d, 4 g/ha; for Destruction in % after 6 d: 20 g/ha.
The next experiment deals with Tetranychus urticae. Briefly: Tetranychus urticae test (OP-resistant/spray treatment) (Example D): infested bean leaf discs. Format: in vivo. On the procedure:
as §1
Bean leaf discs (Phaseolus vulgaris) which are infested with all stages of the red spider mite (Tetranychus urticae) are sprayed with an active substance preparation of the desired concentration.
After the desired period of time, the effect is determined in %.

Where [1] appears, read: Myzus persicae, 24 h, read-out: Destruction in % after 1 d.
Setting [2] is: Phaedon cochleariae, in Brassica oleracea, 144 h, read-out: Destruction in % after 6 d, 0.8 g/ha, after 6 d, Table B second series.
The mark [3] stands for this setting: Phaedon cochleariae, in Brassica oleracea, 144 h, after 6 d, Table B second series.
The mark [4] stands for this setting: Myzus persicae, 144 h, read-out: Destruction in % after 6 d.
The mark [5] stands for this setting: Phaedon cochleariae, in Brassica oleracea, 144 h, read-out: Destruction in % after 6 d, 100 g/ha, after 6 d, Table B fourth series.
[6] abbreviates: Phaedon cochleariae, in Brassica oleracea, 144 h, read-out: Destruction in % after 6 d, 100 g/ha, after 6 d, Table B second series (r19-r78).
Where [7] appears, read: single active substance, after 1 d.
The mark [8] stands for this setting: Myzus persicae, 144 h, single active substance, 0.8 g/ha, after 6 d, read-out: Destruction in % after 6 d.
Where [9] appears, read: Phaedon cochleariae, in Brassica oleracea, 144 h, read-out: Destruction in % after 6 d.

Where two headings read alike, the source gives them in different places.

Turning to `COC(=O)N(C(=O)N1COC2(C(=O)OC)Cc3cc(Cl)ccc3C2=N1)c1ccc(OC(F)(F)F)cc1` (centres unmarked) [Indoxacarb, indoxacarb], in the experiment with Myzus persicae (setting [1]), the pest or weed control at 20 g/ha was found to be 0%. The results for the “Destruction in % after 6 d” value in the experiment on Spodoptera frugiperda (0.8 g/ha) and in the experiment on Spodoptera frugiperda (4 g/ha) were 33% and 83%, respectively. In the experiment with Phaedon cochleariae (setting [2]), the pest or weed control at 0.8 g/ha stood at 0%. In addition, in the experiment with Phaedon cochleariae (setting [3]), the pest or weed control at 4 g/ha worked out at 33%.
For `O=C1C=C(N(Cc2ccc(Cl)nc2)CC(F)F)CO1` [Compound (I-5), 4-{[(6-chloropyrid-3-yl)methyl](2,2-difluoroethyl)amino}furan-2(5H)-one], the values for the pest or weed control at 0.8 g/ha with Myzus persicae (setting [1]), in the experiment on Myzus persicae (setting [4]) and in the experiment with Phaedon cochleariae (setting [2]) were 10%, 10% and 0%, respectively. Besides, in the experiment on Myzus persicae (setting [1]), the pest or weed control at 4 g/ha turned out to be 70%. Moreover, the “Destruction in % after 6 d” value with Spodoptera frugiperda (0.16 g/ha) amounted to 0%; in the experiment with Spodoptera frugiperda (0.8 g/ha), 0%; in the experiment on Spodoptera frugiperda (20 g/ha), 0%; in the experiment on Tetranychus urticae (4 g/ha), 0%; with Phaedon cochleariae (after 6 d, Table B fourth series), 0%. In addition, the “Destruction in % after 2 d” value with Spodoptera frugiperda (4 g/ha, Table C third series) is on record as 0%; with Spodoptera frugiperda (20 g/ha, Table C third series) it was 0%; with Tetranychus urticae (0.16 g/ha), 0%; in the experiment on Tetranychus urticae (4 g/ha), 0%; in the experiment with Phaedon cochleariae (0.8 g/ha, Table B first series), 0%; in the experiment on Phaedon cochleariae (100 g/ha, Table B third series) it was 50%. For the same compound, the pest or weed control at 0.16 g/ha with Phaedon cochleariae (Phaedon cochleariae, in Brassica oleracea, 144 h, read-out: Destruction in % after 6 d, 0.16 g/ha, after 6 d, Table B second series) stood at 0%. Further, the pest or weed control at 100 g/ha with Phaedon cochleariae (setting [5]) turned out to be 33%; in the experiment with Phaedon cochleariae (setting [6]) it was 0%.
With `Cc1nn(C)c(Oc2ccccc2)c1C=NOCc1ccc(C(=O)OC(C)(C)C)cc1` [Fenpyroximate, fenpyroximate], the pest or weed control at 4 g/ha in the experiment with Myzus persicae (setting [1]) amounted to 0%. The “Destruction in % after 6 d” value in the experiment on Tetranychus urticae (4 g/ha) was 0%.
On to abamectin, for which, in the experiment on Myzus persicae (setting [7]), the “Destruction in % after 1 d” value came to 0%. Also, the “Destruction in % after 2 d” value with Tetranychus urticae (0.0064 g/ha) is 50%; in the experiment with Phaedon cochleariae (4 g/ha, Table B third series), 67%.
For the compound `Nc1nc(N)nc(NC2CC2)n1` [Cyromazine, cyromazine], in the experiment on Myzus persicae (setting [1]), the pest or weed control at 4 g/ha was determined as 0%. Besides, the pest or weed control at 20 g/ha with Phaedon cochleariae (Phaedon cochleariae, in Brassica oleracea, 144 h, read-out: Destruction in % after 6 d, 20 g/ha, after 6 d, Table B fourth series (r118-r181)) worked out at 0%. In addition, the pest or weed control at 100 g/ha in the experiment with Phaedon cochleariae (setting [5]) is 0%.
As for `CC1=NNC(=O)N(/N=C/c2cccnc2)C1` [Pymetrozine, pymetrozine], the pest or weed control at 0.16 g/ha in the experiment on Myzus persicae (setting [1]) turned out to be 0%. Further, the pest or weed control at 0.8 g/ha in the experiment on Myzus persicae (setting [4]) came out at 50%. Further, the pest or weed control at 100 g/ha with Phaedon cochleariae (setting [5]) worked out at 0%.
Consider `O=C1C=C(N(CCF)Cc2ccc(Cl)nc2)CO1` [Compound (I-4), 4-{[(6-chloropyrid-3-yl)methyl](2-fluoroethyl)amino}furan-2(5H)-one], for which the pest or weed control at 0.8 g/ha with Myzus persicae (Myzus persicae, 24 h, single active substance, 0.8 g/ha, after 1 d, read-out: Destruction in % after 1 d) came to 0%; with Myzus persicae (setting [8]), 0%; in the experiment with Phaedon cochleariae (setting [9]) it was 0%. Also, the pest or weed control at 4 g/ha came out at 30% with Myzus persicae (Myzus persicae, 24 h, single active substance, 4 g/ha, after 1 d, read-out: Destruction in % after 1 d) and 60% in the experiment on Myzus persicae (Myzus persicae, 144 h, single active substance, 4 g/ha, after 6 d, read-out: Destruction in % after 6 d). Further, the “Destruction in % after 6 d” value with Spodoptera frugiperda (0.16 g/ha) is recorded as 0%; in the experiment with Spodoptera frugiperda (0.8 g/ha), 0%; in the experiment with Spodoptera frugiperda (100 g/ha), 0%; in the experiment with Tetranychus urticae (4 g/ha) it was 0%; in the experiment on Phaedon cochleariae (after 6 d, Table B second series), 0%. The “Destruction in % after 2 d” value with Spodoptera frugiperda (4 g/ha, Table C third series) worked out at 0%; in the experiment with Spodoptera frugiperda (20 g/ha, Table C third series), 0%; with Tetranychus urticae (0.8 g/ha), 0%; in the experiment with Tetranychus urticae (4 g/ha) it was 0%; with Tetranychus urticae (20 g/ha), 0%; in the experiment with Phaedon cochleariae (100 g/ha, Table B third series), 33%. The pest or weed control at 20 g/ha in the experiment with Phaedon cochleariae (setting [9]) stood at 0%. In addition, in the experiment on Phaedon cochleariae (setting [9]), the pest or weed control at 100 g/ha worked out at 33%.
For `CC(C)(C)c1ccc(CSc2cnn(C(C)(C)C)c(=O)c2Cl)cc1` [pyridaben], in the experiment with Tetranychus urticae (20 g/ha), the “Destruction in % after 2 d” value is listed as 50%. In addition, the pest or weed control at 100 g/ha in the experiment on Phaedon cochleariae (setting [5]) turned out to be 0%.
For the compound `N#Cc1ccc(CC(=NNC(=O)Nc2ccc(OC(F)(F)F)cc2)c2cccc(C(F)(F)F)c2)cc1` (mixture of isomers) [Metaflumizone, 2-[2-(4-cyanophenyl)-1-[3-(trifluoromethyl)-phenyl]ethylidene]-N-[4-(trifluoromethoxy)phenyl]hydrazinecarboxamide], in the experiment on Myzus persicae (setting [8]), the pest or weed control at 0.8 g/ha turned out to be 0%. The results for the “Destruction in % after 6 d” value in the experiment on Spodoptera frugiperda (20 g/ha) and in the experiment on Spodoptera frugiperda (100 g/ha) were 0% and 83%, respectively. The pest or weed control at 100 g/ha in the experiment with Phaedon cochleariae (setting [9]) was 0%.
In the case of `CC[S+]([O-])c1c(C#N)nn(-c2c(Cl)cc(C(F)(F)F)cc2Cl)c1N` (centres unmarked) [Ethiprole, ethiprole], the results for the pest or weed control at 4 g/ha in the experiment with Myzus persicae (setting [1]), with Myzus persicae (setting [4]) and with Phaedon cochleariae (setting [3]) were 0%, 0% and 67%, respectively. The pest or weed control at 0.8 g/ha with Phaedon cochleariae (setting [2]) worked out at 33%.
Turning to `Cc1ccc(/N=C/N(C)/C=N/c2ccc(C)cc2C)c(C)c1` [Amitraz, amitraz], the pest or weed control at 4 g/ha in the experiment with Myzus persicae (setting [1]) was 0%. Besides, in the experiment with Phaedon cochleariae (setting [5]), the pest or weed control at 100 g/ha was found to be 0%.
Consider `N#CCNC(=O)c1cnccc1C(F)(F)F` [Flonicamid, flonicamid], for which the pest or weed control at 0.8 g/ha with Myzus persicae (setting [1]) turned out to be 0%. Also, the pest or weed control at 100 g/ha with Phaedon cochleariae (setting [6]) came to 0%.
Regarding `CSC(=O)O/C(=C(/C#N)c1ccc(Cl)cc1)c1ccccc1C(F)(F)F` [IKA 2002, O-{(E)-2-(4-chlorophenyl)-2-cyano-1-[2-(trifluoromethyl)phenyl]ethenyl}S-methyl thiocarbonate], in the experiment with Phaedon cochleariae (setting [9]), the pest or weed control at 20 g/ha came out at 0% and the pest or weed control at 100 g/ha amounted to 0%.
On to `N#Cc1nn(-c2c(Cl)cc(C(F)(F)F)cc2Cl)c(N)c1[S+]([O-])C(F)(F)F` (centres unmarked) [Fipronil, fipronil], for which the pest or weed control at 20 g/ha with Myzus persicae (setting [1]) was determined as 30%. For the same compound, the pest or weed control at 0.8 g/ha in the experiment on Myzus persicae (setting [4]) was found to be 0%. The “Destruction in % after 6 d” value in the experiment with Spodoptera frugiperda (0.8 g/ha) is listed as 17%.
In the case of `CCOCn1c(-c2ccc(Cl)cc2)c(C#N)c(Br)c1C(F)(F)F` [Chlorfenapyr, chlorfenapyr], the pest or weed control at 4 g/ha in the experiment with Myzus persicae (setting [1]) is 0%. The “Destruction in % after 2 d” value in the experiment with Spodoptera frugiperda (20 g/ha, Table C third series) was 33%; with Phaedon cochleariae (100 g/ha, Table B third series), 67%.
On to `CNC(=O)c1cc(Cl)cc(C)c1NC(=O)c1cc(Br)nn1-c1ncccc1Cl` [Rynaxapyr, 3-bromo-N-{4-chloro-2-methyl-6-[(methylamino)carbonyl]phenyl}-1-(3-chloropyridin-2-yl)-1H-pyrazole-5-carboxamide], for which the pest or weed control at 0.8 g/ha in the experiment on Myzus persicae (setting [1]) was 0%. In addition, in the experiment on Myzus persicae (setting [4]), the pest or weed control at 0.032 g/ha was 0%. Further, the “Destruction in % after 6 d” value in the experiment on Spodoptera frugiperda (0.16 g/ha) is reported as 33%. In the experiment with Phaedon cochleariae (setting [3]), the pest or weed control at 4 g/ha amounted to 50%.
As for `COCCOC(=O)C(C#N)(C(=O)c1ccccc1C(F)(F)F)c1ccc(C(C)(C)C)cc1` (stereo not drawn) [Cyflumetofen, 2-methoxyethyl alpha-cyano-alpha-[4-(1,1,dimethylethyl)phenyl]-beta-oxo-2-(trifluoromethyl)benzenepropanoate], the pest or weed control at 4 g/ha in the experiment with Myzus persicae (setting [1]) came to 0%. The “Destruction in % after 6 d” value with Tetranychus urticae (4 g/ha) turned out to be 70%. The pest or weed control at 100 g/ha in the experiment with Phaedon cochleariae (setting [5]) came out at 0%.
Turning to milbemectin, the “Destruction in % after 1 d” value in the experiment with Myzus persicae (setting [7]) came to 0%. Besides, the “Destruction in % after 6 d” value in the experiment with Tetranychus urticae (0.16 g/ha) amounted to 0%.
On to `Cc1nn(C)c(/C(OC(=O)C(C)(C)C)=C(\C#N)c2ccc(C(C)(C)C)cc2)c1C` [Cyenopyrafen, (1E)-2-cyano-2-[4-(1,1-dimethylethyl)phenyl]-1-(1,3,4-trimethyl-1H-pyrazol-5-yl)ethenyl 2,2-dimethylpropanoate], for which, in the experiment on Myzus persicae (setting [1]), the pest or weed control at 4 g/ha stood at 0%. Also, the “Destruction in % after 2 d” value in the experiment with Tetranychus urticae (0.16 g/ha) turned out to be 0%; in the experiment on Tetranychus urticae (0.8 g/ha) it was 50%. Moreover, the pest or weed control at 100 g/ha in the experiment on Phaedon cochleariae (setting [5]) was found to be 0%.
Consider `CC(C)c1cc(Oc2ccccc2)cc(C(C)C)c1NC(=S)NC(C)(C)C` [Diafenthiuron, diafenthiuron], for which the pest or weed control at 4 g/ha in the experiment with Myzus persicae (setting [1]) worked out at 0%. Also, in the experiment with Tetranychus urticae (100 g/ha), the “Destruction in % after 2 d” value came out at 0% and the “Destruction in % after 6 d” value was 0%.
Regarding `CCc1nn(C)c(C(=O)NCc2ccc(C(C)(C)C)cc2)c1Cl` [tebufenpyrad], the “Destruction in % after 2 d” value is 10% in the experiment with Tetranychus urticae (4 g/ha) and 50% with Phaedon cochleariae (100 g/ha, Table B third series).
As to emamectin-benzoate, the “Destruction in % after 1 d” value with Myzus persicae (setting [7]) was 0%. The “Destruction in % after 2 d” value stood at 50% in the experiment with Spodoptera frugiperda (0.8 g/ha, Table C first series) and 0% in the experiment on Phaedon cochleariae (0.032 g/ha, Table B first series).

Values taken from patent publication US9173394B2, “Active agent combinations having insecticidal and acaricidal properties” (BAYER INTELLECTUAL PROPERTY GMBH, priority 2007, dated 2015).
